In patent publication US11666555B2, “RelA inhibitors for biofilm disruption” (DREXEL UNIVERSITY, priority 2017, dated 2023):

Legend:
Type in all cases: cell-based, Escherichia coli
[1] = test system: E. coli C biofilm formation; assay: Biofilm Inhibition Test (crystal violet, OD570/OD600); conditions: for effect on biofilm formation (crystal violet): 20 μg/mL
Procedure: Biofilm Inhibition Test—The biofilm inhibition was analyzed. For biofilm formation on a polystyrene surface, flat-bottom 96-well microtiter plates (Corning Inc.) were used. The effect of different compounds on biofilm formation was tested by adding compounds at specific concentrations to the bacterial culture (100× diluted overnight culture approx. 10^9 cells) in fresh LB medium. Two hundred microliters were aliquoted into 96 well plate and placed for 24 or 48 h into 37° C. incubator. Cell density was measured (OD600) using a Multiscan Go plate reader (ThermoFisher), and 30 μL of Gram crystal violet (Remel-3 g CV, 50 mL isopropanol, 50 mL ethanol and 900 mL of purified water) was applied for staining for 1 h. Plates were washed with water and air dried, and crystal violet was solubilized with an ethanol-acetone (4:1) solution. The OD570 was determined from this solution, and the biofilm amount was calculated as the ratio of OD570 to OD600. In order to check the effect of small molecules on biofilm formation, a biofilm inhibition experiment was designed. Compounds A and B were tested at concentration 20 μg/mL. The Innate defense regulator peptide-1018 (IDR-1018) (10 μg/mL) and serine hydroxamate (1 μg/mL) were also included.

E. Coli biofilms = assay: Synergistic effect of compounds combined with ampicillin on biofilm; conditions: in conjunction with ampicillin, FIG. 8
Procedure: The synergistic effect of compounds combined with antibiotics was tested. Biofilms were grown for 24, 48 or 72 h as described above. After that time planktonic cells were removed, and biofilms were washed twice with 250 μL of sterile phosphate buffered saline (PBS) solution. Two hundred microliters of fresh LB medium with specific concentration of the tested compounds and Ampicillin were dispensed into wells. After 18 h incubation at 37° C., the amount of biofilm was measured by CV staining as described above. For alamarBlue viability test, 4 μL of alamarBlue (Invitrogen) was added and plates were incubated in the Biotek HT plate reader at 37° C. for 4 h. Cell viability was measured as fluorescence at 530/590 nm (excitation/emission) versus compound concentration or initial cell density.
FIG. 8 highlights some of the data collected. […] As a positive control in these experiments IDR-1018 was utilized. IDR-1018 is a non-druggable antibiofilm peptide. IDR 1018 is a known biofilm disruptor that directly acts and degrades (p)ppGpp in cells (de la Fuente-Núñez 2014).

E. coli C biofilm = assay: Biofilm Destruction Test (biofilm persistence, crystal violet); conditions: for effect on biofilm persistence / survival: two days biofilms, FIG. 6; for increase in biofilm persistence: 2 days old biofilm, 18 h, FIG. 7
Procedure: Biofilm Destruction Test—The biofilm destruction was determined. Biofilms were grown for 24 or 48 h as described above. After that time planktonic cells were removed, and biofilms were washed twice with 250 μL of sterile phosphate buffered saline (PBS) solution. Two hundred microliters of fresh LB medium with specific concentration of the tested compounds were dispensed into wells. After 18 h incubation at 37° C., the amount of biofilm was measured by CV staining as described above.
The effect of small molecules on biofilm persistence was tested. Two days biofilms were treated with compounds A and B as well as IDR-1018 and serine hydroxamate.
As described above, antibiotics affect bacterial cell survival in biofilms. Thus, the effect of antibiotic on biofilm persistence was tested. Ampicillin was applied on 2 days old biofilm and the amount of biofilm was analyzed after 18 h.

E. coli C = assay: Bacterial growth curves in liquid culture (OD630); conditions: for effect on bacterial growth (growth curves): liquid culture, 30, 20, 10 and 5 μg/mL, OD630, 18 h, FIG. 2
Procedure: The bacterial strain of Escherichia coli strain C was used as the model organism for initial screening. A Luria-Bertani (LB-Miller) medium was used as the full medium. Once the biofilms were grown, compounds S3-[…] and S3-G1B were tested for their ability to degrade and inhibit biofilm growth. […] This is likely due to the fact that the stringent response and RelA are not active when the cells are initially grown. Bacterial Growth-The effect of different compounds on bacterial growth was tested by adding compounds at specific concentrations to the bacterial culture (100× diluted overnight culture approx. 10^9 cells) in fresh LB medium. Two hundred microliters were aliquoted into a 96 well plate and placed into Biotek HT plate reader for 18 h at 37° C. Plates were shaken and the optical density (OD630) was measured every 15 min. Antibiotic Susceptibility Test-The antibiotic susceptibility was tested. For the liquid cultures, the minimum inhibitory concentrations (MICs) of the antimicrobial drugs were determined using 96 well plates and the broth dilution method. Suspensions were then incubated at 37° C. for 18 hours in the Biotek HT plate reader (see bacterial growth). For biofilm, the Biofilm Destruction Test discussed below was used with different antibiotic concentrations and the cell density was measured after 18 h. Bacterial concentration was calculated through optical density (OD630), and the lowest concentration causing 80% growth inhibition relative to the growth of the control was deemed to be the MIC. In order to test the effect of compounds on bacterial growth, liquid culture experiments were performed. The S3-[…] compound (hereinafter “compound A”) and S3-G1B compound (hereinafter “compound B”) were applied to the bacterial cultures at the concentrations of 30, 20, 10 and 5 μg/mL. The differences in bacterial growth curves in liquid cultures fortified with the test compounds were measured. The Escherichia coli strain C is sensitive to all types of antibiotics. To test the MIC of ampicillin, a standard growth curve experiment was run with different concentrations of antibiotics. […] Inoculum at 1000× dilution of overnight culture.

[2] = test system: E. coli C cells in biofilm; assay: Antibiotic susceptibility of cells in biofilm (cell density after 18 h treatment); conditions: 18 h treatment of 2-day biofilm
Procedure: Antibiotic Susceptibility Test—The antibiotic susceptibility was tested. For the liquid cultures, the minimum inhibitory concentrations (MICs) of the antimicrobial drugs were determined using 96 well plates and the broth dilution method. Suspensions were then incubated at 37° C. for 18 hours in the Biotek HT plate reader (see bacterial growth). For biofilm, the Biofilm Destruction Test discussed below was used with different antibiotic concentrations and the cell density was measured after 18 h. Bacterial concentration was calculated through optical density (OD630), and the lowest concentration causing 80% growth inhibition relative to the growth of the control was deemed to be the MIC. Biofilm Destruction Test—The biofilm destruction was determined. Biofilms were grown for 24 or 48 h as described above. After that time planktonic cells were removed, and biofilms were washed twice with 250 μL of sterile phosphate buffered saline (PBS) solution. Two hundred microliters of fresh LB medium with specific concentration of the tested compounds were dispensed into wells. After 18 h incubation at 37° C., the amount of biofilm was measured by CV staining as described above. As cells in the biofilm tend to be more resistant to antibiotics, similar ampicillin concentration was tested to check the effect of 18 h antibiotic treatment on 2-day biofilm growth. […] At 40 μg/mL, a decrease in cell growth was observed of 15%. Starting from 50 μg/mL the cell density was reduced from 53% to 5% (at 90 μg/mL) of the untreated control.

Compound | biofilm concentration compared to biofilms treated with just antibiotics (E. Coli biofilms) | biofilm degradation compared with positive control IDR-1018 (E. Coli biofilms) | effect on the initial growth of biofilms [1] | effect on biofilm formation (crystal violet) ([1]; FIG. 5B) | effect on biofilm persistence / survival (E. coli C biofilm) | effect on bacterial growth (growth curves) (E. coli C) | also measured
NC(CO)C(=O)NO (stereo not drawn) [Serine hydroxamate, serine hydroxamate, reference compound] |  |  |  |  |  |  | effect in biofilm inhibition experiment ([1]; 1 μg/mL, 24 h experiment): did not show any effect
O=C(N[C@H](C(=O)O)c1ccc(Cl)cc1)c1cc(-c2ccc(O)cc2)n[nH]1 [Compound S3-G1A, (4-chlorophenyl)([(3-(4-hydroxyphenyl)-1H-pyrazol-5-yl]carbonyl)amino)acetic acid] | decreasing the biofilm concentration significantly | outperform IDR-1018 | did not show any effect | slight increase | no significant effect | Neither compound showed any effect | effect on bacterial growth (growth curves) (E. coli C; listed as A): no effect
CCCNc1ncc(-c2cc(-c3cc(C(=O)O)[nH]n3)nc(N)c2C#N)cn1 [Compound S3-G1B] | decreasing the biofilm concentration significantly | outperform IDR-1018 | did not show any effect | slight increase | no significant effect | Neither compound showed any effect | effect on bacterial growth (growth curves) (E. coli C; listed as B): no effect
IDR-1018 [reference compound] |  |  |  |  | smaller effect on biofilm destruction than on biofilm inhibition |  | planktonic growth lower than the untreated control ([1]; 10 μg/mL, FIG. 5A): 63%; biofilm lower than the untreated control ([1]; 10 μg/mL, FIG. 5B): 45%
CC1(C)S[C@@H]2[C@H](NC(=O)[C@H](N)c3ccccc3)C(=O)N2[C@H]1C(=O)O [ampicillin] |  |  |  |  |  |  | decrease in cell growth ([2]; 40 μg/mL): 15%; cell density, % of the untreated control ([2]; 50 μg/mL): 53%; cell density, % of the untreated control ([2]; 90 μg/mL): 5%; increase in biofilm persistence (E. coli C biofilm; Amp 10 (10 μg/mL)): 1.7 fold; increase in biofilm persistence (E. coli C biofilm; Amp 70 (70 μg/mL)): 5.9 fold; effect on planktonic growth curve (E. coli C; low ampicillin concentrations, FIG. 3): bacteriostatic effect with a prolonged lag phase
